ChEMBL document CHEMBL1126109 (J Med Chem, 1992)

Columns and labels:
Assay type in all cases: protein-complex assay
[1] = molecular target: Glutamate NMDA receptor; assay: Compound was evaluated for the inhibition of [3H]-CGS-19,755 binding at N-methyl-D-aspartate glutamate receptor
[2] = molecular target: Glutamate NMDA receptor; assay: Compound was evaluated for the inhibition of [3H]norepinephrine binding at N-methyl-D-aspartate glutamate receptor
[3] = molecular target: Glutamate NMDA receptor; assay: Compound was evaluated for the inhibition of [3H]MK-801 binding at N-methyl-D-aspartate glutamate receptor

| IC50 [1] | EC50 [2] | EC50 [3] | Structure (SMILES) |
| --- | --- | --- | --- |
| 163 nM | 16500 nM | 180 nM | N[C@]1(C(=O)O)C[C@@H](C(=O)O)C1 |
| 98 nM | 2030 nM | 70 nM | NC(C(=O)O)c1nnn[nH]1 (racemic) |
| 1640 nM |  |  | N[C@@H](CC(=O)O)C(=O)O [ASPARTIC ACID] |
| 4150 nM | 75000 nM | 6860 nM | CN[C@H](CC(=O)O)C(=O)O [N-METHYL-D-ASPARTIC ACID (NMDA)] |
